Values of other authors, collected in patent US20150040249A1, “Non-Human Animal Models of Depression and Methods of Use Thereof” (The Board of Trustees of the Leland Stanford Junior …, priority 2012, published 2015).

Tests used:
[1] = system: NMDAR; conditions: humans; acute
[2] = rats; in vivo electrophysiological recordings

SMILES | depression-like symptoms [1] | reduced bursting activity in depression models [2]
CNC1(c2ccccc2Cl)CCCCC1=O (centres unmarked) [ketamine] | can acutely improve depression-like symptoms | 
CNCCCN1c2ccccc2CCc2ccccc21 [desipramine] |  | restored
